In US5654296A, “Condensed heterocyclic compounds, their production and use” (priority 1994, dated 1997):
Where a name gives a salt, the structure may show the parent alone.

Legend:
[1] = test system: 45Ca2+ uptake (veratrine-stimulated, rat cerebral cortex crude synaptosome fraction); test: 45Ca2+ uptake inhibition experiment; format: biochemical; details: 30 μM veratrine, 37° C., 10 minutes, read-out: 45Ca2+ uptake inhibitory activity (IC50 μM)
Method: The rat cerebral cortex was homogenized in 10 volumes of ice-cooled 0.32M sucrose solution to prepare a crude synaptosome fraction (100×G, 10 min., 12000×G, 20 min.). […] To 900 μl of the homogenate was added a DMSO solution of the test drug (10 μl). The mixture was incubated at 37° C. for 10 minutes, followed by addition of 100 μl of a veratrine solution (containing 0.18 uci ^45 Ca^2+) at a final veratrine concentration of 30 μM. The mixture was incubated at 37° C. for 10 minutes, quenched with 4 ml of ice-cooled EGTA solution (120 mM sodium chloride, 5 mM potassium chloride, 5 mM EGTA, pH=7.5) and suction-filtered using a GF/B filter. The filter was washed twice with 4 ml each of a washing solution (132 mM sodium chloride, 5 mM potassium chloride, 1.3 mM magnesium chloride, 1.2 mM calcium, chloride, 20 mM Tris base, pH 7.5) and the radioactivity of […] was measured by the liquid scintillation method.
The ^45 Ca^2+ uptake inhibition rate was calculated by means of the following equation. [formula] A: The ^45 Ca^2+ uptake after 10 minutes' stimulation with 30 μM veratrine in the presence of the test drug
B: The ^45 Ca^2+ uptake in the absence of veratrine and in the presence of the test drug
C: The ^45 Ca^2+ uptake after 10 minutes' stimulation with 30 μM veratrine in the absence of the test drug
D: The ^45 Ca^2+ uptake in the absence of the test drug and in the absence of veratrine

serotonine (5-HT) uptake = test: Activity to inhibit serotonine (5-HT) uptake; format: biochemical; details: rat whole brain; 3H-5-HT 10 nM; 37° C.; pH 7.4; read-out: 5-HT uptake inhibitory activity (IC50 μM)
Method: (a) Activity to inhibit serotonine (5-HT) uptake
(§1) The experiment was performed in accordance with the method of Hyttel et al. [Psychopharmacology 60, 13, 1978]. The whole brain of a rat was homogenized in 40 volumes of ice-cooled 0.32M sucrose solution containing 10 μM pargyline and, then, centrifuged (600×G) for 10 minutes. The supernatant was centrifuged (2500×G) for 55 minutes to provide a pellet. This pellet was suspended in Krebs-Ringer-phosphate buffer (pH 7.4; 122 mM NaCl, 4.82 mM KCl, 0.972 mM CaCl2, 1.21 mM MgSO4, 12.7 mM Na2 HPO4, 2.97 mM NaH2 PO4, 0.162 mM EDTA sodium, 10 mM glucose, 1.14 mM ascorbic acid) saturated with a mixed gas (95% O and 5% CO2). To 900 μl of this suspention was added a solution of the test drug (10 μl) in DMSO and the mixture was incubated at 37° C. for 5 minutes. Then, 100 μl of ^3 H-5-HT (final concentration 10 nM) was added and the mixture was further incubated at 37° C. for 5 minutes. This reaction mixture was filtered under suction using a GF/B filter and the filter was washed with 4 ml of the above-mentioned buffer. The radioactivity on the filter was measured by the liquid scintillation method.
The amount of the drug which caused a 50% decrease in 5-HT uptake is shown as 50% inhibitory activity (IC50) in Table 42.

[2] = test system: norepinephrine (NE) uptake; test: Activity to inhibit norepinephrine (NE) uptake; format: biochemical; details: rat cerebral cortex; 3H-NE; read-out: NE uptake inhibitory activity (IC50 μM)
Method: as §1
(b) Activity to inhibit norepinephrine (NE) uptake
Using the rat cerebral cortex and, as the substrate, ^3 H-NE, an experiment was performed by otherwise the same procedure as described for 5-HT.

[3] = molecular target: T1, GnRH receptors (bovine pituitary anterior lobe membrane fraction) (Bos taurus, UniProt P32236); test: 125I-leuprolerin GnRH receptor binding inhibition test, bovine pituitary anterior lobe membrane fraction; details: 4° C., 90 minutes, read-out: Binding inhibitory activity (IC50 μM) Bovine
T1 construct: A bovine pituitary anterior lobe membrane fraction containing GnRH receptors was prepared; from tissue; host or cells: bovine pituitary anterior lobe, membrane fraction
T1 sequence (P32236 1-328): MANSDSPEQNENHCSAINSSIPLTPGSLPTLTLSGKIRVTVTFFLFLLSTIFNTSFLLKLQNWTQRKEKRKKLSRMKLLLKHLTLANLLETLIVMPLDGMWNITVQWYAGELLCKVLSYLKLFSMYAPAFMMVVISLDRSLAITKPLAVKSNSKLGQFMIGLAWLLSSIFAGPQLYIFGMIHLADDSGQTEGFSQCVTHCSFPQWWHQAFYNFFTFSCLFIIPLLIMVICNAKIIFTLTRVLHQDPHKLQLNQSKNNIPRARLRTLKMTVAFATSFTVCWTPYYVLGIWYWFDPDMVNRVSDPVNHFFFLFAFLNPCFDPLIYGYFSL
Method: Ten (10) μl of 3×10^4 M aqueous leuprolerin solution and 10 μl of 0.01 mg/ml lactoperoxidase were taken in a tube and 10 μl of Na^125 I solution (37 MBq) was added. After stirring, 10 μl of 0.001% H2 O2 was added and the reaction was conducted at room temperature for 20 minutes. Then, 700 μl of 0.05% TFA solution was added to the tube to terminate the reaction and the reaction mixture was purified by reverse-phase HPLC. The HPLC conditions are shown below. ^125 I-leuprolerin was eluted after a retention time of 26-27 minutes. (C) Preparation of a Bovine Pituitary Anterior Lobe Membrane Fraction Containing GnRH Receptors A bovine pituitary anterior lobe membrane fraction containing GnRH receptors was prepared by the same procedure as described under (B). However, a 10,000×G centrifugation supernatant was recentrifuged at 100,000×G for 1 hour to provide the membrane fraction pellet. […] For the rat and human membrane fractions prepared in (B) and (D), each membrane fraction was diluted with assay buffer to a concentration of 200 μg/ml and distributed in 188 μl portions into tubes. As to the bovine membrane fraction prepared in (C), the membrane fraction was diluted with assay buffer to 750 μg/ml and distributed in 188 μl portions into tubes. […] Where the rat or bovine pituitary anterior lobe membrane fraction was used, the reaction was conducted at 4° C. for 90 minutes. Where the membrane fraction of the CHO with human GnRH receptors expressed was used, the reaction was carried out at 25° C. for 60 minutes. […] After filtration, the radioactivity of ^125 I-leuprolerin remaining on the filter was measured with a γ-counter. The expression (TB-SB)/(TB-NSB)×100 (where SB=radioactivity with the compound added, TB=maximum bound radioactivity, NSB=nonspecifically bound radioactivity) was calculated to find the binding inhibition rate of each test compound.

[4] = molecular target: T2, GnRH receptors (rat pituitary anterior lobe membrane fraction) (Rattus norvegicus, UniProt P30969); test: 125I-leuprolerin GnRH receptor binding inhibition test, rat pituitary anterior lobe membrane fraction; details: 4° C., 90 minutes, read-out: Binding inhibitory activity (IC50 μM) Rat
T2 construct: the anterior lobe of the pituitary gland was isolated and washed with ice-cooled homogenate buffer; from tissue; host or cells: anterior lobe of the pituitary gland, male Wistar rats (8 weeks old), membrane fraction
T2 sequence (P30969 1-327): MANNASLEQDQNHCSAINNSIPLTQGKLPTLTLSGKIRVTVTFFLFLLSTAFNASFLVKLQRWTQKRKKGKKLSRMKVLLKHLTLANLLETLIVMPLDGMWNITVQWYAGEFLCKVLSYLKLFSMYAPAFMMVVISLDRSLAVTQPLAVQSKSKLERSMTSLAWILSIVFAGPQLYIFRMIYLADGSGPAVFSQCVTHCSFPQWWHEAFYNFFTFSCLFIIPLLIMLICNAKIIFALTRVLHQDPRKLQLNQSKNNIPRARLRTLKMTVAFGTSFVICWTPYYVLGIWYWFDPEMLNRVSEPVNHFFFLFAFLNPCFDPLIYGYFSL
Method: Ten (10) μl of 3×10^4 M aqueous leuprolerin solution and 10 μl of 0.01 mg/ml lactoperoxidase were taken in a tube and 10 μl of Na^125 I solution (37 MBq) was added. After stirring, 10 μl of 0.001% H2 O2 was added and the reaction was conducted at room temperature for 20 minutes. Then, 700 μl of 0.05% TFA solution was added to the tube to terminate the reaction and the reaction mixture was purified by reverse-phase HPLC. The HPLC conditions are shown below. ^125 I-leuprolerin was eluted after a retention time of 26-27 minutes. (B) Preparation of a Rat Pituitary Anterior Lobe Membrane Fraction Containing GnRH Receptors […] The pituitary tissue was floated in 2 ml of the homogenate buffer and homogenized using a Polytron homogenizer. The homogenate was centrifuged at 700×G for 15 minutes. The supernatant was taken in an ultracentrifuge tube and centrifuged at 100,000×G for 1 hour to provide a membrane fraction pellet. […] The membrane fraction recovered as a pellet was resuspended in 10 ml of assay buffer, divided into portions, preserved at -80° C. and thawed when needed. […] For the rat and human membrane fractions prepared in (B) and (D), each membrane fraction was diluted with assay buffer to a concentration of 200 μg/ml and distributed in 188 μl portions into tubes. As to the bovine membrane fraction prepared in (C), the membrane fraction was diluted with assay buffer to 750 μg/ml and distributed in 188 μl portions into tubes. […] Where the rat or bovine pituitary anterior lobe membrane fraction was used, the reaction was conducted at 4° C. for 90 minutes. Where the membrane fraction of the CHO with human GnRH receptors expressed was used, the reaction was carried out at 25° C. for 60 minutes. […] After filtration, the radioactivity of ^125 I-leuprolerin remaining on the filter was measured with a γ-counter. The expression (TB-SB)/(TB-NSB)×100 (where SB=radioactivity with the compound added, TB=maximum bound radioactivity, NSB=nonspecifically bound radioactivity) was calculated to find the binding inhibition rate of each test compound.

Compound	IC50 [1] [µM]	IC50 (serotonine (5-HT) uptake) [µM]	IC50 [2] [µM]	IC50 [3] [µM]	IC50 [4] [µM]
Fc1ccc(N2CCN(CCCC3(c4ccccc4)COCc4ccccc43)CC2)cc1 (stereo not shown) [Example I-30, 4-{3-[4-(p-Fluorophenyl)piperazin-1-yl]propyl}-4-phenylisochroman dihydrochloride]	1.59	0.068	0.59	–	–
COc1cc2c(cc1OC)CC1(CCCCN1CCCC1(c3ccccc3)COCc3ccccc31)CC2 (stereo not shown) [Example I-37, 3,4-Dihydro-6,7-dimethoxy-1'-[3-(4-phenylisochroman-4-yl)propyl]spiro[naphthalene-2(1H),2'-piperidine] hydrochloride]	–	–	–	6	0.03
COc1cc2c(cc1OC)CC1(CCCCN1CCCC1(c3ccc(F)cc3)COCc3ccccc31)CC2 (stereo not shown) [Example I-50, 3,4-Dihydro-6,7-dimethoxy-1'-{3-[4-(p-fluorophenyl)isochroman-4-yl]propyl}spiro[naphthalene-2(1H),2'-piperidine] hydrochloride]	–	–	–	8	0.08
COc1ccc2c(c1)CCC1(CCCCN1CCCC1(c3ccccc3)COCc3ccccc31)C2=O (stereo not shown) [Example I-48, 3,4-Dihydro-6-methoxy-1'-[3-(4-phenylisochroman-4-yl)propyl]spiro[1-oxonaphthalene-2-(1H),2'-piperidine] hydrochloride]	–	–	–	10	0.4
c1ccc(C2CCN(CCCC3(c4ccccc4)COCc4ccccc43)CC2)cc1 (stereo not shown) [Example I-33, 4-[3-(4.-Phenylpiperidino)propyl]-4-phenylisochroman hydrochloride]	0.69	0.27	0.55	–	–
O=C1c2ccsc2CCC12CCCCN2CCCC1(c2ccccc2)COCc2ccccc21 (stereo not shown) [Example I-47, 6,7-Dihydro-1'-[3-(4-phenylisochroman-4-yl)propyl]spiro[4-oxobenzo(b)thiophene-5(4H),2'-piperidine] hydrochloride]	–	–	–	7	0.3
COc1cccc(NC(=O)N2Cc3ccccc3C(CCN3CCN(c4ccc(F)cc4)CC3)(c3ccccc3)C2)c1 (stereo not shown) [IV-20, 1,2,3,4-Tetrahydro-4-{2-[4-(p-fluorophenyl)piperazin-1-yl]ethyl}-2-(3-methoxyphenyl)carbamoyl-4-phenylisoquinoline hydrochloride]	0.17	0.03	0.12	–	–
c1ccc(C2(CCN3CCCCC34CCc3ccccc3C4)COCc3ccccc32)cc1 (stereo not shown) [Example I-12, 3,4-Dihydro-1'-[2-(4-phenylisochroman-4-yl)ethyl]spiro[naphthalene-2(1H),2'-piperidine] hydrochloride]	0.85	0.022	0.015	–	–
CN(CCCC1(c2ccccc2)CN(C(=O)Nc2ccccc2)Cc2ccccc21)Cc1ccccc1 (stereo not shown) [IV-19, 4-[3-(N-Benzyl-N-methylamino)propyl]-4-phenyl-2-phenylcarbamoyl-1,2,3,4-tetrahydroisoquinoline hydrochloride]	0.95	0.23	0.56	–	–
COc1ccc(CCNCCCC2(c3ccccc3)COCc3ccccc32)cc1OC (stereo not shown) [Example I-25, 4-[3-(3,4-Dimethoxyphenethylamino)propyl]-4-phenylisochroman hydrochloride]	1.19	0.14	0.39	–	–
O=C1c2ccccc2CCC12CCCCN2CCCC1(c2ccccc2)COCc2ccccc21 (stereo not shown) [Example I-49, 3,4-Dihydro-1'-[3-(4-phenylisochroman-4-yl)propyl]spiro[1-oxonaphthalene-2(1H),2'-piperidine] hydrochloride]	–	–	–	10	0.5
